Laboratory results from patent publication US11040980B2, “Substituted pyrazolo[3,4-d]pyrimidines as kinase inhibitors” (PRINCIPIA BIOPHARMA INC., priority 2012, dated 2021).

Biological target: protein target (Homo sapiens (Human), UniProt Q06187)
Test: Reversibility of binding (compound in solution before and after perturbation of target, HPLC-MS/MS)
Settings: target in native (folded) state, target in excess of compound
Protocol: The following approach was developed to differentiate compounds that form irreversible covalent bond with their targets, such as non-cyano containing acrylamide compounds, from compound that form reversible covalent bond i.e., compounds and/or pharmaceutically acceptable salts of the present disclosure. […] The reactions were then treated with perturbations including both denaturation with 5 M guanidine hydrochloride and digestion with trypsin, disrupting proper folding of the target. […] The concentration of compound in solution was assessed both preceding and following perturbation using high performance liquid chromatography (HPLC) coupled to tandem mass spectrometry.

Chain of protein target (Q06187 whole entry): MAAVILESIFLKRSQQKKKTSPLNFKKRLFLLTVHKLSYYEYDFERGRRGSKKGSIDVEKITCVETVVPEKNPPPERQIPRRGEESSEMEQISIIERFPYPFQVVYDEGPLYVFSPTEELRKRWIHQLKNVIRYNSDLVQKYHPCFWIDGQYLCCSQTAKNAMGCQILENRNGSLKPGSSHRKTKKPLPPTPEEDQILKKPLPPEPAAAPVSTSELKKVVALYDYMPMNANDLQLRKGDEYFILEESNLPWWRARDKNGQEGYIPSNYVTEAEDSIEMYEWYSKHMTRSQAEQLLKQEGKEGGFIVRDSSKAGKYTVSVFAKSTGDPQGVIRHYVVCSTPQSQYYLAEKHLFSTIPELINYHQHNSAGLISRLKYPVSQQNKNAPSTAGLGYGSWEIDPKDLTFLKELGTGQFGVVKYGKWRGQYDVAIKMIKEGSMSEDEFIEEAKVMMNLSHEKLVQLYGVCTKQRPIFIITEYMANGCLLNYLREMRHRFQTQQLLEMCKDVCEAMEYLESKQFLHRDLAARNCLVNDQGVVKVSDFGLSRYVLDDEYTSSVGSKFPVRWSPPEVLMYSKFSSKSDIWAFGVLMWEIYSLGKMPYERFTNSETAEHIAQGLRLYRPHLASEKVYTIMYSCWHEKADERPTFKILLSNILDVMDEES

Question: How did the “Compound in solution in the native state?” value turn out when `CN(C1COC1)C(C)(C)C=C(C#N)C(=O)N1CCC[C@H]1Cn1nc(-c2ccc(Oc3ccccc3)cc2F)c2c(N)ncnc21` [Example 10, 2-[(2S)-2-[[4-amino-3-(2-fluoro-4-phenoxy-phenyl)pyrazolo[3,4-d]pyrimidin-1-yl]methyl]pyrrolidine-1-carbonyl]-4-methyl-4-[methyl(oxetan-3-yl)amino]pent-2-enenitrile] was run?
Answer: no
